Source: patent US20100143265A1, “SYSTEM AND METHOD FOR THE DELIVERY OF A SANITIZING FOAM” (GREEN SOURCE AUTOMATED, LLC, priority 2008, published 2010)

Test: Gas solubility in water / dip solution
Assay type: physicochemical
Settings: standard room temperature and 100 psi pressure
Protocol: Carbon dioxide (CO2) is soluble in water up to 1.45 g/L at 25° C. and 100 kPa. The amount of CO2 that can be dissolved into the dip solution is dependent on the temperature and pressure of the solution. The lower the temperature of the solution the less pressure that is required to saturate the solution with CO2. Conversely, the higher the temperature of the dip solution the more pressure that is required to saturate the solution with CO2.
The system (FIG. 3) was used with nitrous oxide as the propellant/diffusion gas. In an embodiment of the invention, nitrous oxide (N2O) can be used as a propellant/diffusion. N2O is partially soluble in water, but is almost completely soluble in fats and oils (the skin conditioner provided in the cow dip). Under standard room temperature and 100 psi pressure, approximately four volumes of N2O can be dissolved in one volume of the dip solution. The resulting nitrous oxide foam expands to approximately 6 mm in diameter, where the individual bubbles in the foam vary in size from approximately 1 micron to approximately 10 microns. After coalescing, the remaining liquid dries on the teat. It is noted that the amount of N2O that can be dissolved in one volume of dip solution will increase if more conditioners (containing one or more of fats, oils, fatty acids and triglycerides) are used since N2O is almost completely soluble in fats and oils. […]

| Structure (SMILES) | volumes dissolved (gas and dip solution) |
| --- | --- |
| O=C=O [CO2, Carbon dioxide] | approximately 4.5 volumes |
| [N-]=[N+]=O [Example N2O, nitrous oxide] | approximately four |
